The values below come from ChEMBL document CHEMBL3046204, “Protective effect of Centaurea pallescens Del. against CCl4-induced injury on a human hepatoma cell line (Huh7)” (2013).

For assay [1], the system named is Huh-7. Kind of assay: Hepatoprotective activity against CCL4-induced toxicity in human HuH7 cells assessed as decrease in aspartate aminotransferase level at 10 to 1000 ug/ml incubated for 1 hr prior to CCL4-challenge measured after 2 hrs relative to control. It counts as functional, cell-based.
For assay [2], the system named is Huh-7. Kind of assay: Hepatoprotective activity against CCL4-induced toxicity in human HuH7 cells assessed as superoxide dismutase activity at 100 ug/ml incubated for 1 hr prior to CCL4-challenge measured after 2 hrs (reference value: 168.4 +/- 24.9 U/ml). It counts as functional.
Assay [3] has as its system Huh-7. Kind of assay: Hepatoprotective activity against CCL4-induced toxicity in human HuH7 cells assessed as increase in superoxide dismutase activity at 10 to 1000 ug/ml incubated for 1 hr prior to CCL4-challenge measured after 2 hrs relative to control. The format is functional, cell-based.
Assay [4] concerns Huh-7. The experiment in a line: Hepatoprotective activity against CCL4-induced toxicity in human HuH7 cells assessed as alanine transaminase level at 100 ug/ml incubated for 1 hr prior to CCL4-challenge measured after 2 hrs (reference value: 21.5 +/- 3.7 U/ml). The format is functional.
Assay [5] relates to Huh-7. The experiment in a line: Hepatoprotective activity against CCL4-induced toxicity in human HuH7 cells assessed as decrease in alanine transaminase level at 10 to 1000 ug/ml incubated for 1 hr prior to CCL4-challenge measured after 2 hrs relative to control. It counts as functional, cell-based.
Assay [6] deals with Huh-7. Kind of assay: Hepatoprotective activity against CCL4-induced toxicity in human HuH7 cells assessed as increase in GSH level at 10 to 1000 ug/ml incubated for 1 hr prior to CCL4-challenge measured after 2 hrs relative to control. The format is functional, cell-based.
Assay [7] has as its system Huh-7. The experiment in a line: Hepatoprotective activity against CCL4-induced toxicity in human HuH7 cells assessed as aspartate aminotransferase level at 10 ug/ml incubated for 1 hr prior to CCL4-challenge measured after 2 hrs (reference value: 38.9 +/- 7.9 U/ml). The format is functional.

The source made the active and inactive calls. The calls are words filed in the database; no cut-off is given here.

As for `COc1ccc(-c2oc3cc(O[C@@H]4O[C@@H](C)[C@H](OC(=O)/C=C/c5ccc(O)cc5)[C@@H](O)[C@H]4O)cc(O)c3c(=O)c2O[C@@H]2O[C@H](CO)[C@@H](O)[C@H](O[C@@H]3O[C@@H](C)[C@H](O)[C@@H](O)[C@H]3O)[C@H]2OC(=O)/C=C/c2ccc(O)cc2)cc1`, the outcome with Huh-7 [1], in the assay with Huh-7 [3], with Huh-7 [5] and with Huh-7 [6] was Active. Further, the Activity with Huh-7 [2] was found to be 264.6 U/ml; in the assay on Huh-7 [4], 18.6 U/ml.
Regarding `O=c1c(OC2O[C@H](CO)[C@@H](O)[C@H](O)[C@H]2O)c(-c2cc(O)c(O)c(O)c2)oc2cc(O)cc(O)c12` (stereo not given in full) [MYRICETIN 3-O-GLUCOSIDE], the result in the assay on Huh-7 [1], in the assay on Huh-7 [3], in the assay with Huh-7 [5] and in the assay on Huh-7 [6] was Active. Moreover, in the assay on Huh-7 [7], the Activity is listed as 5.8 U/ml.
As for `O=c1c(O[C@@H]2O[C@H](CO)[C@@H](O)[C@H](O)[C@H]2O)c(-c2ccc(O)c(O)c2)oc2cc(O)cc(O)c12`, the outcome in the assay on Huh-7 [1], in the assay with Huh-7 [3], with Huh-7 [5] and in the assay on Huh-7 [6] was Active.
